Numbered stars: 1 amine (or outer) side, 2 acyl side, 3 side chain; on linkers, the order of the positions; unused ones are H or OH. Bridge positions count the residues as written; N and C are the ends. Square brackets hold non-standard residues; d marks the D form. Peptide text beside a SMILES is read from it. * marks the point of attachment. Ala(piperidin-4-yl) = O=C([C@H](CC1CCN([*:3])CC1)N[*:1])[*:2]; DOTA = O=C(O)CN1CCN(CC(=O)O)CCN(CC(=O)*)CCN(CC(=O)O)CC1; 2Nal = N[C@@H](Cc1ccc2ccccc2c1)C(=O)O; Lauroyl = CCCCCCCCCCCC(=O)*
Experiments:
CT26.DLL3 cells [1] = experiment: Internalization (out of bound fraction) of [177Lu]Lu-test peptide, CT26.DLL3 cells; assay type: cell-based; conditions: 1 hour at 37° C., glycine pH 2.5 wash
How it was run: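 [177Lu]Lu-peptide (labelled at 80 °C, pH ~5, 17-20 min) incubated with 5-25 million CT26.DLL3 cells in 1% PBSA, 0.8 μCi, 1 h at 37 °C. Surface-bound activity stripped twice with 50 mM glycine pH 2.5, 3 min; NaOH-solubilized cell activity gamma-counted as internalized fraction, binned ≤25%, 25-50%, >50%.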

SHP-77 cells [2] = experiment: Cell binding (total uptake) of [177Lu]Lu-test peptide, SHP-77 cells; assay type: cell-based; conditions: SHP77 cells, 1 hour at 37° C., bound fraction
Description: [^177Lu]LuCl3 was received from venders in HCl solution. For every mCi of [^177Lu]LuCl3 added to the reaction vial (1.5 mL Eppendorf vial), ammonium acetate buffer (0.2 M, pH 4.9, 100 μL, containing 1% w/v ascorbic acid and 6% v/v ethanol) and peptide conjugate (1 nmol). A peptide conjugate of the present disclosure is also referred to herein as a “chelator-peptide”. The pH of the solution was determined to be approximately 5 by using pH strips. The reaction vial was incubated at 80° C., 700 RPM for 17-20 minutes. A sample from the reaction was analyzed by RP-HPLC using an Agilent Infinity II 1260 HPLC to determine reaction completion and radiochemical purity of [^177Lu]Lu-chelator-peptide. HPLC conditions: Waters XBridge BEH C18 Column, 130 Å, 3.5 um, 4.6 mm×250 mm; mobile phase: Solvent A=water (with 0.1% formic acid), solvent B=acetonitrile (with 0.1% formic acid). Gradients: 25-45% B in 10 minutes, 45-65% B in 12 minutes, 65-90% in 6 minutes at a flow rate of 0.5 mL/minute. Required amounts of the product was formulated in 1% PBSA for cell studies.
The study was conducted using SHP-77, CT26.WT, and CT26.DLL3 cells (Table 7) Adherent cell studies: The cells were cultured in appropriate culture media (20 mL) in tissue culture treated T150 flasks at 37° C. and 5% CO2. Adherent cells were detached (60-70% confluent) using 5 mL Versene at 37° C. for 3 minutes. After confirming the viability using countess and count of detached cells using Trypan blue, the cells were centrifuged at 4° C. for 5 minutes (1,000 rpm). The cell pellet obtained was washed once with PBS and resuspended in 1% PBSA to obtain the desired cell concentration (5-25 million cells/mL).
Suspension cell studies: The cells were cultured in appropriate culture media (20 mL) in tissue culture treated T150 flasks at 37° C. and 5% CO2. After confirming the viability and count of detached cells using Trypan blue, the cells were centrifuged at 4° C. for 5 minutes (1,000 rpm). The cell pellet obtained was washed once with PBS and resuspended in 1% PBSA to obtain the desired cell concentration (5-25 million cells/mL).
Cell numbers used for the assay were in the range of 5 million cells/condition −25 million cells/condition.
Total uptake: Cells were incubated with 300 μL (0.8 μCi) of the incubation buffer (containing radiolabeled peptide [^177Lu] Lu-test peptide) for 1 hour at 37° C. (Table 8). Post incubation, the cells were pelleted and washed 2 times using cold PBS+1% BSA. The supernatant and washes were combined and counted together as “unbound fraction” in a gamma counter. The cells were then resuspended in 300 μL of 1% PBS+1% BSA and counted in the gamma counter as “bound fraction”.
In these Tables, “A” represents %≤25; “B” represents 25<%≤50; “C” represents %>50.

SHP-77 tumors = experiment: Ex vivo biodistribution of radiolabeled peptides in nude mice bearing SHP-77 tumors; conditions: [177Lu]Lu labelling, nude mice bearing SHP-77 tumors (n = 3), 24 hours post-injection
How it was run: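 Nude mice bearing SHP-77 xenografts (200-400 mm^3) or tumor-naïve mice (5-7 weeks) received an intravenous tail-vein bolus of [^177Lu]Lu-peptide and were euthanized at pre-set time points. Tissues were weighed and gamma-counted, with counts decay-corrected to injection time. Values are % IA/g per tissue from the injected activity of each mouse.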

SHP-77 cells [3] = experiment: Internalization (out of bound fraction) of [177Lu]Lu-test peptide, SHP-77 cells; assay type: cell-based; conditions: SHP77 cells, 1 hour at 37° C., after 50 mM Glycine pH=2.5 wash
Description: [^177Lu]LuCl3 was received from venders in HCl solution. For every mCi of [^177Lu]LuCl3 added to the reaction vial (1.5 mL Eppendorf vial), ammonium acetate buffer (0.2 M, pH 4.9, 100 μL, containing 1% w/v ascorbic acid and 6% v/v ethanol) and peptide conjugate (1 nmol). A peptide conjugate of the present disclosure is also referred to herein as a “chelator-peptide”. The pH of the solution was determined to be approximately 5 by using pH strips. The reaction vial was incubated at 80° C., 700 RPM for 17-20 minutes. A sample from the reaction was analyzed by RP-HPLC using an Agilent Infinity II 1260 HPLC to determine reaction completion and radiochemical purity of [^177Lu]Lu-chelator-peptide. […]
Total uptake: Cells were incubated with 300 μL (0.8 μCi) of the incubation buffer (containing radiolabeled peptide [^177Lu] Lu-test peptide) for 1 hour at 37° C. […] The supernatant and washes were combined and counted together as “unbound fraction” in a gamma counter. The cells were then resuspended in 300 μL of 1% PBS+1% BSA and counted in the gamma counter as “bound fraction”.
Internalization: The resuspended cells in 300 μl of 1% PBSA and counted in the gamma counter as “bound fraction” were collected in 1.5 mL Eppendorf tube and pelleted. […] This was counted in the gamma counter as “internalized fraction”. […]

human DLL3 = target: T1, human DLL3 (Homo sapiens, UniProt Q9NYJ7); experiment: Affinity determination by Surface Plasmon Resonance (SPR); assay type: binding; conditions: 25° C., biotinylated human DLL3 immobilized on streptavidin sensor chip, 1:1 binding model; read-out: SPR KD
T1 sequence (Q9NYJ7 27-618): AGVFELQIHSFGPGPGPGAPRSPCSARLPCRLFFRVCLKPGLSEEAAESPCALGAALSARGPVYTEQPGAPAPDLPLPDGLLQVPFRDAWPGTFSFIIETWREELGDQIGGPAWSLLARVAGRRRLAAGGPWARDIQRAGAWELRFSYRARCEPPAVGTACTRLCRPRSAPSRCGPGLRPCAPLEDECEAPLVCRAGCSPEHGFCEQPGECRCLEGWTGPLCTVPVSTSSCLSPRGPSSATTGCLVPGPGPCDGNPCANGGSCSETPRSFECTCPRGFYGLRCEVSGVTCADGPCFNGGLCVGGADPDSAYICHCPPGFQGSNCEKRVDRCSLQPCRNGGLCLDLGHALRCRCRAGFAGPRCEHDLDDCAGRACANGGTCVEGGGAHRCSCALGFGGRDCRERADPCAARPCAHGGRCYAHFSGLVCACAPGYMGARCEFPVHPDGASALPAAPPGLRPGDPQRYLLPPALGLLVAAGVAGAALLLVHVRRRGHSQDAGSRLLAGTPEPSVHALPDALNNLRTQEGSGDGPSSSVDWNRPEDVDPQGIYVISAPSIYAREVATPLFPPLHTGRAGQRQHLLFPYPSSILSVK
How it was run: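 Biotinylated human DLL3 was captured on a streptavidin chip with a reference surface. Compounds at several concentrations were injected at 100 μL/minute in phosphate buffer (137 mM NaCl, 2.7 mM KCl, 0.05% P20, 2% DMSO). Affinity and kinetics came from 1:1 model fits of the sensorgrams.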

CT26.DLL3 cells [4] = experiment: Cell binding (total uptake) of [177Lu]Lu-test peptide, CT26.DLL3 cells; assay type: cell-based; conditions: 1 hour at 37° C.
How it was run: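 CT26.DLL3 cells (5–25 million/condition) in 1% PBSA incubated 1 h at 37°C with [177Lu]Lu-labelled peptide (0.8 μCi in 300 μL), radiolabelled at pH ~5, 80°C. Cells pelleted, washed twice with cold PBS+1% BSA; bound and unbound fractions gamma-counted, uptake binned as ≤25%, 25–50%, >50%.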

CCCCCCCCCCCC(=O)NCCCC[C@@H]1NC(=O)[C@H](Cc2ccc3ccccc3c2)NC(=O)[C@H](CC(N)=O)NC(=O)[C@H](CC2CCNCC2)NC(=O)[C@@H](NC(=O)[C@@H](NC(=O)[C@@H](NC(=O)[C@H](Cc2c[nH]c3ccccc23)NC(C)=O)[C@@H](C)O)[C@@H](C)CC)CSSC[C@@H](C(=O)N[C@@H](Cc2c[nH]c3ccccc23)C(=O)N2CCC[C@H]2C(=O)N[C@H](CCCCNC(=O)CN2CCN(CC(=O)O)CCN(CC(=O)O)CCN(CC(=O)O)CC2)C(N)=O)NC(=O)[C@H](CC(=O)O)NC1=O [compound 326, Ac-W-T-I-C(3)-[3-(4-piperidinyl)-Ala]-N-(2Nal)-K(C12)-D-C(3)-W-P-[D-Lys(DOTA)]-NH2] (Ac-WTIC[Ala(piperidin-4-yl)]N[2Nal]K(Lauroyl)DCWP[dK](DOTA)-NH2; disulfide 4-10)
% Internalization (out of bound fraction) (CT26.DLL3 cells [1]): C (%>50) | % Binding (SHP-77 cells [2]): A (%≤25) | kidney uptake (% IA/g) (SHP-77 tumors; kidney): C (0 < % IA/g ≤ 10 in kidney) | tumor uptake (% IA/g) (SHP-77 tumors; tumor): A (0 < % IA/g ≤ 5 in tumor) | % Internalization (out of bound fraction) (SHP-77 cells [3]): B (25<%≤50) | Kd (human DLL3): 1 to 10 nM | % Binding (CT26.DLL3 cells [4]): A (%≤25)
